The target in series [1] is Human recombinant cyclophilin A (Cyp A) (Homo sapiens (Human), UniProt P62937). The series can be described thus: Protease-free PPIase assay.
Series [2] addresses calcineurin/cyclophilin A (Homo sapiens (Human), UniProt P62937+P63098+Q08209). Nature of the series: Calcineurin Phosphatase (CaN) Assay (+CypA). Conditions: in the presence of Cyp A, 1:1 complex with inhibitor; read-out: Calcineurin Phosphatase (CaN) Assay (+CypA) IC50. The format is biochemical.
A short description of series [3]: Water Solubility Assay (measured in pH 7.8 buffer). The format is physicochemical. Conditions: kinetic from dmso stock, 25 °C.
Setting [4] is: read-out: Protease-free PPIase Assay Ki, human recombinant Cyp A, 10 °C.
[5] abbreviates: 35 mM HEPES buffer pH 7.8, aqueous buffer, 35 mM HEPES pH 7.8, 1% DMSO, 18 h, read-out: Water Solubility Assay, concentration at which the compound remains in solution.

Values after ≈ are worked out from the molar mass of the structure shown. Read-outs that look alike come from different tables or passages of the source. A value given as a limit tells only on which side of the number the result lay.

For orientation: Ki means a measure of affinity in units of concentration, obtained from inhibition or displacement. As a reminder, the IC50 is the point on the concentration scale where inhibition reaches its midpoint.

`CC[C@H]1NC(=O)[C@@H]([C@H](O)[C@H](C)CCCc2ccc(OC)cn2)N(C)C(=O)[C@@H](C(C)C)N(C)C(=O)[C@@H](CC(C)C)N(C)C(=O)[C@@H](CC(C)C)N(C)C(=O)[C@H](C)NC(=O)[C@@H](C)NC(=O)[C@@H](CC(C)C)N(C)C(=O)[C@@H](C(C)C)NC(=O)[C@H](CC(C)C)N(C)C(=O)[C@@H](C)N(C)C1=O` [Compound 16, [(2S,3R,4R)-3-Hydroxy-4-methyl-2-(methylamino)-7-(5-methoxy-pyridin-2-yl)-heptanoic acid]^1 [(R)-methyl-Sar]^3 cyclosporin A]: in series [1] (setting [4]), the Ki worked out at 0.72 nM. In addition, the half-inhibitory concentration (IC50) in series [2] was over 10000 nM. Moreover, the solubility at 18 h in series [3] (setting [5]) was in the range of 25 to 50 µM (≈ 32.8 to 65.6 µg/mL).
As for `CC[C@H]1NC(=O)[C@@H]([C@H](O)[C@H](C)Cc2nccn2CCN(C)C)N(C)C(=O)[C@@H](C(C)C)N(C)C(=O)[C@@H](CC(C)C)N(C)C(=O)[C@@H](CC(C)C)N(C)C(=O)[C@H](C)NC(=O)[C@@H](C)NC(=O)[C@@H](CC(C)C)N(C)C(=O)[C@@H](C(C)C)NC(=O)[C@H](CC(C)C)N(C)C(=O)[C@@H](C)N(C)C1=O` [Compound 4, [(2S,3R,4R)-5-(1-(N,N-Dimethyl-ethyl)-1H-imidazol-2-yl)-3-hydroxy-4-methyl-2-(methylamino)pentanoic acid]^1 [(R)-methyl-Sar]^3 cyclosporin A], the inhibition constant (Ki) in series [1] (setting [4]) amounted to 5.1 nM. Besides, in series [2], the IC50 turned out to be 6900 nM. For the same compound, the solubility at 18 h in series [3] (setting [5]) is over 100 µM.
As to `CC[C@H]1NC(=O)[C@@H]([C@H](O)[C@H](C)CCCc2cccnn2)N(C)C(=O)[C@@H](C(C)C)N(C)C(=O)[C@@H](CC(C)C)N(C)C(=O)[C@@H](CC(C)C)N(C)C(=O)[C@H](C)NC(=O)[C@@H](C)NC(=O)[C@@H](CC(C)C)N(C)C(=O)[C@@H](C(C)C)NC(=O)[C@H](CC(C)C)N(C)C(=O)[C@@H](C)N(C)C1=O` [Compound 21, [(2S,3R,4R)-3-Hydroxy-4-methyl-2-(methylamino)-7-(pyridazin-3-yl)-heptanoic acid]^1 [(R)-methyl-Sar]^3 cyclosporin A], in series [1], the Ki stood at 3.2 nM. For the same compound, the 50% inhibitory concentration (IC50) in series [2] is over 10000 nM. The solubility at 18 h in series [3] (pH 7.8, aqueous buffer) was over 100 µM.
In the same order, the values of `CC[C@H]1NC(=O)[C@@H]([C@H](O)[C@H](C)CCCc2cccnc2)N(C)C(=O)[C@@H](C(C)C)N(C)C(=O)[C@@H](CC(C)C)N(C)C(=O)[C@@H](CC(C)C)N(C)C(=O)[C@H](C)NC(=O)[C@@H](C)NC(=O)[C@@H](CC(C)C)N(C)C(=O)[C@@H](C(C)C)NC(=O)[C@H](CC(C)C)N(C)C(=O)[C@@H](C)N(C)C1=O` [Compound 11, [(2S,3R,4S)-3-Hydroxy-4-methyl-2-(methylamino)-7-(pyridin-3-yl)-heptanoic acid]^1 [(R)-methyl-Sar]^3 cyclosporin A] are 5.6 nM, 2500 nM and 50 to 75 µM (≈ 64.1 to 96.1 µg/mL).
With `CC[C@H]1NC(=O)[C@@H]([C@H](O)[C@H](C)CCCc2ccccn2)N(C)C(=O)[C@@H](C(C)C)N(C)C(=O)[C@@H](CC(C)C)N(C)C(=O)[C@@H](CC(C)C)N(C)C(=O)[C@H](C)NC(=O)[C@@H](C)NC(=O)[C@@H](CC(C)C)N(C)C(=O)[C@@H](C(C)C)NC(=O)[C@H](CC(C)C)N(C)C(=O)[C@@H](C)N(C)C1=O` [Compound 12, [(2S,3R,4R)-3-Hydroxy-4-methyl-2-(methylamino)-7-(pyridin-2-yl)-heptanoic acid]^1 [(R)-methyl-Sar]^3 cyclosporin A], the Ki in series [1] is 3.8 nM. In addition, the IC50 in series [2] was determined as 1400 nM. The solubility at 18 h in series [3] (pH 7.8, aqueous buffer) lay in the range of 50 to 75 µM (≈ 64.1 to 96.1 µg/mL).
As for `CC[C@H]1NC(=O)[C@@H]([C@H](O)[C@H](C)CCOCc2ccncc2)N(C)C(=O)[C@@H](C(C)C)N(C)C(=O)[C@@H](CC(C)C)N(C)C(=O)[C@@H](CC(C)C)N(C)C(=O)[C@H](C)NC(=O)[C@@H](C)NC(=O)[C@@H](CC(C)C)N(C)C(=O)[C@@H](C(C)C)NC(=O)[C@H](CC(C)C)N(C)C(=O)[C@@H](C)N(C)C1=O` [Compound 37, [(2S,3R,4R)-3-Hydroxy-4-methyl-2-(methylamino)-6-(pyridin-4-ylmethoxy)-hexanoic acid]^1 cyclosporin A], the Ki in series [1] was 5.6 nM. Also, the concentration for half-maximal inhibition (IC50) in series [2] came to 5640 nM. The solubility at 18 h in series [3] (pH 7.8, aqueous buffer) is over 100 µM.
On to `CC[C@H]1NC(=O)[C@@H]([C@H](O)[C@H](C)Cc2nccn2Cc2ccccn2)N(C)C(=O)[C@@H](C(C)C)N(C)C(=O)[C@@H](CC(C)C)N(C)C(=O)[C@@H](CC(C)C)N(C)C(=O)[C@H](C)NC(=O)[C@@H](C)NC(=O)[C@@H](CC(C)C)N(C)C(=O)[C@@H](C(C)C)NC(=O)[C@H](CC(C)C)N(C)C(=O)[C@@H](C)N(C)C1=O` [Compound 5, [(2S,3R,4R)-3-Hydroxy-4-methyl-2-(methylamino)-5-(1-(pyridin-2-yl-methyl)-1H-imidazol-2-yl)-pentanoic acid]^1 [(R)-methyl-Sar]^3cyclosporin A], for which the inhibition constant (Ki) in series [1] (setting [4]) turned out to be 4.1 nM. For the same compound, the IC50 in series [2] amounted to 8600 nM. Further, the solubility at 18 h in series [3] (setting [5]) is over 100 µM.
`CC[C@H]1NC(=O)[C@@H]([C@H](O)[C@H](C)CCCc2ccncc2)N(C)C(=O)[C@@H](C(C)C)N(C)C(=O)[C@@H](CC(C)C)N(C)C(=O)[C@@H](CC(C)C)N(C)C(=O)[C@H](C)NC(=O)[C@@H](C)NC(=O)[C@@H](CC(C)C)N(C)C(=O)[C@@H](C(C)C)NC(=O)[C@H](CC(C)C)N(C)C(=O)CN(C)C1=O` [Compound 30, [(2S,3R,4R)-3-Hydroxy-4-methyl-2-(methylamino)-7-(pyridin-4-yl)-heptanoic acid]^1 cyclosporin A]: the inhibitory constant (Ki) in series [1] is 14 nM. Further, the 50% inhibitory concentration (IC50) in series [2] stood at 3150 nM. Besides, the solubility at 18 h in series [3] (pH 7.8, aqueous buffer) lay in the range of 50 to 75 µM (≈ 63.4 to 95.1 µg/mL).
As to `CC[C@H]1NC(=O)[C@@H]([C@H](O)[C@H](C)Cc2nccn2CCc2cccnc2)N(C)C(=O)[C@@H](C(C)C)N(C)C(=O)[C@@H](CC(C)C)N(C)C(=O)[C@@H](CC(C)C)N(C)C(=O)[C@H](C)NC(=O)[C@@H](C)NC(=O)[C@@H](CC(C)C)N(C)C(=O)[C@@H](C(C)C)NC(=O)[C@H](CC(C)C)N(C)C(=O)[C@@H](C)N(C)C1=O` [Compound 7, [(2S,3R,4R)-3-Hydroxy-4-methyl-2-(methylamino) 5-(1-(pyridin-3-yl-ethyl)-1H-imidazol-2-yl)pentanoic acid]^1 [(R)-methyl-Sar]^3 cyclosporin A], the Ki in series [1] (setting [4]) came out at 5.6 nM. Also, the half-maximal inhibitory concentration (IC50) in series [2] stood at 7850 nM. The solubility at 18 h in series [3] (setting [5]) is over 100 µM.
On to `CC[C@H]1NC(=O)[C@@H]([C@H](O)[C@H](C)CCCc2ccccn2)N(C)C(=O)[C@@H](C(C)C)N(C)C(=O)[C@@H](CC(C)C)N(C)C(=O)[C@@H](CC(C)C)N(C)C(=O)[C@H](C)NC(=O)[C@@H](C)NC(=O)[C@@H](CC(C)C)N(C)C(=O)[C@@H](C(C)C)NC(=O)[C@H](CC(C)C)N(C)C(=O)[C@@H](SC)N(C)C1=O` [Compound 35], for which, in series [1] (setting [4]), the Ki was 4.4 nM. Besides, in series [2], the IC50 turned out to be 1600 nM. The compound also yielded a solubility at 18 h in series [3] (pH 7.8, aqueous buffer) of 75 to 100 µM (≈ 98.5 to 131 µg/mL).
In the same order, the values of `CC[C@H]1NC(=O)[C@@H]([C@H](O)[C@H](C)CCCc2ncccn2)N(C)C(=O)[C@@H](C(C)C)N(C)C(=O)[C@@H](CC(C)C)N(C)C(=O)[C@@H](CC(C)C)N(C)C(=O)[C@H](C)NC(=O)[C@@H](C)NC(=O)[C@@H](CC(C)C)N(C)C(=O)[C@@H](C(C)C)NC(=O)[C@H](CC(C)C)N(C)C(=O)CN(C)C1=O` [Compound 32, [(2S,3R,4R)-3-Hydroxy-4-methyl-2-(methylamino)-7-(pyrimidin-2-yl)-heptanoic acid]^1 cyclosporin A] are 8.3 nM, 3450 nM and 75 to 100 µM (≈ 95.2 to 127 µg/mL).

(Values after US10077289B2, “Cyclosporins modified on the MeBmt sidechain by heterocyclic rings” (priority 2015, dated 2018).)
